# Laboratory results reported in US8541460B2, “PDK-1/Akt signaling inhibitors” (The Ohio State University, priority 2003, dated 2013).
# Read-outs that look alike come from different tables or passages of the source.
# How the values were obtained:
# recombinant PDK-1 = target: T1, recombinant PDK-1 (Homo sapiens, UniProt O15530); assay: PDK-1 kinase activity (Upstate kit, cell-free); format: biochemical
# T1 construct: purchased Upstate (Lake Placid, N.Y.)
# T1 sequence (O15530 1-556): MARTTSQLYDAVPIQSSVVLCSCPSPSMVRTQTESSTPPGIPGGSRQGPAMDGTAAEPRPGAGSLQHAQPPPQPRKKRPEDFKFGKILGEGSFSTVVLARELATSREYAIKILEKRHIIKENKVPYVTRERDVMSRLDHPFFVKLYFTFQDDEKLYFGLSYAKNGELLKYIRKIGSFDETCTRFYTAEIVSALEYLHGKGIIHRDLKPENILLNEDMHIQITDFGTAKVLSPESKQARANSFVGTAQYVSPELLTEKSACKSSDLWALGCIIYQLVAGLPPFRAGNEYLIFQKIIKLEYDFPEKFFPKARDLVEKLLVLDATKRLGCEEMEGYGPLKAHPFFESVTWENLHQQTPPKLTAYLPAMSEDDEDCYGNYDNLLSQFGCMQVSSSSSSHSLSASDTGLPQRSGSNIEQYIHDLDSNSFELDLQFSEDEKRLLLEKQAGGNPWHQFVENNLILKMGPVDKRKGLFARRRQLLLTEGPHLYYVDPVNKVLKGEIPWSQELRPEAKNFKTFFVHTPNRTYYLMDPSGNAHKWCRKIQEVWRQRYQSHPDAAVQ
# Method: PDK-1 kinase activity This in vitro assay was performed using a PDK-1 kinase assay kit (Upstate, Lake Placid, N.Y.) according to the vendor's instructions. This cell-free assay is based on the ability of recombinant PDK-1, in the presence of DMSO vehicle or the test agent, to activate its downstream kinase serum- and glucocorticoid-regulated kinase (SGK.) which, in turn, phosphorylates the Akt/SGK-specific peptide substrate RPRAATF with [γ-^32]-ATP. […] The reported values represent the means of two independent determinations.
# PC-3 cells = assay: PC-3 cell viability analysis (MTT); format: cell-based, human
# Method: Cell Culture PC-3 (p53−/−) human androgen-nonresponsive prostate cancer cells were purchased from the American […] (Manassas, Va.). Cells were cultured in RPMI 1640 medium (Gibco, Grand Island, N.Y.) supplemented with 10% fetal bovine serum (FBS; Gibco) at 37° C. in a humidified incubator containing 5% CO2.
# Cell viability analysis The effect of 4-[5-(4-methylphenyl)-3-(trifluoromethyl)-1H-pyrazol-1-yl]benzenesulfonamide and its derivatives on PC-3 cell viability was assessed by using the MTT {[3-(4,5-dimethylthiazol-2-yl)-2,5-diphenyl-2H-tetrazolium bromide]} assay in six replicates. Cells were grown in 10% FBS-supplemented RPMI 1640 medium in 96-well, flat bottomed plates for 24 h, and were exposed to various concentrations of compounds 1-36 dissolved in DMSO (final concentration≦0.1%) in 1% serum-containing RPMI 1640 medium for different time intervals. Controls received DMSO vehicle at a concentration equal to that in drug-treated cells. The medium was removed, replaced by 200 μl of 0.5 mg/ml of MTT in 10% FBS-containing RPMI-1640 medium, and cells were incubated in the CO2 incubator at 37° C. for 2 h. Supernatants were removed from the wells, and the reduced MTT dye was solubilized in 200 μL/well DMSO. Absorbance at 570 nm was determined on a plate reader.
# phospho-473Ser Akt = assay: Western blot of Akt and phospho-Akt in PC-3 cells; format: cell-based, human; conditions: 5 μM and above
# Method: Immunoblotting. The general procedure for the Western blot analysis of Akt and phospho-Akt is described as follows. Cells were washed in PBS, resuspended in SDS sample buffer sonicated by an ultrasonic sonicator for 5 sec, and boiled for 5 min. After brief centrifugation, equivalent protein concentrations from the soluble fractions were resolved in 10% SDS-polyacrylamide gels on a Minigel apparatus, and transferred to a nitrocellulose membrane using a semi-dry transfer cell. The transblotted membrane was washed three times with TBS containing 0.05% Tween 20 (TBST). After blocking with TBST containing 5% nonfat milk for 60 min., the membrane was incubated with the primary antibody at 1:1,000 dilution in TBST-5% low fat milk at 4° C. for 12 h, and was then washed three times with TBST. The membrane was probed with goat anti-rabbit IgG-HRP conjugates (1:1,000) for 1 h at room temperature, and was washed with TBST three times. The immunoblots were visualized by enhanced chemiluminescence.
# Akt = assay: Immunoprecipitated Akt kinase assay, drug-treated PC-3 cells (intracellular Akt activation); format: cell-based; conditions: Homo sapiens, PC-3 cells treated 2 h, read-out: IC50 for inhibiting intracellular Akt activation
# Method: Immunoprecipitated Akt kinase assay Akt immunoprecipitation was carried out according to a modified, published procedure. PC-3 cells were treated with DMSO vehicle or the test agents at the indicated concentrations for 2 h and then lysed at 4° C. for 1 h in buffer A containing 50 mM Tris-HCl, pH 7.5, 1% Triton X-100, 1 mM EDTA, 1 mM EGTA, 50 mM sodium fluoride, 10 mM sodium β-glycerophosphate. 0.1% 2-mercaptoethanol, 0.1 mM phenylmethylsiilfonyl fluoride, and 1 μg/mL each of aprotinin, pepstatin, and leupeptin. Cell lysates were centrifuged at 10,000 g for 5 min, and the supernatant was treated with anti-Akt at 4° C. for 60 min., followed by protein G-agarose beads for additional 60 min. The immunoprecipitate was used to analyze Akt kinase activity by using the Akt/SGK-specific peptide substrate RPRAATF as described above. Values represented the means of two independent determinations.
# immunoprecipitated Akt = assay: Direct inhibition of immunoprecipitated Akt kinase activity; format: biochemical, human
# [1] = inhibiting recombinant PDK-1 kinase activity, read-out: IC50 PDK-1
# [2] = inducing apoptotic death in PC-3 cells / PC-3 cell viability, read-out: IC50 PC-3
Compound,IC50 (recombinant PDK-1; [1]) [µM],IC50 (PC-3 cells; [2]) [µM],also measured
"4-[5-(4′triflouromethyl[1,1′-biphenyl]-4-yl)-3-(trifluoromethyl)-1H-1-yl]benzenesulfonamide [Compound 51]",18,8,–
5-(2-Phenanthrenyl)-3-(trifluoromethyl)-4-(1H-tetrazol-5-ylmethylphenyl)-1H-pyrazole [Compound 69],45,27,–
5-(2-Phenanthrenyl)-3-(trifluoromethyl)-4-(1H-tetrazol-5-ylphenyl)-1H-pyrazole [Compound 64],52,32,–
"NS(=O)(=O)c1ccc(-n2nc(C(F)(F)F)cc2-c2ccc3c(ccc4ccccc43)c2)cc1 [Compound 59, 4-[5-(2-phenanthrenyl)-3-(trifluoromethyl)-1H-1-yl]benzenesulfonamide]",–,–,"IC50 (PC-3 cells; Homo sapiens, PC-3, 24 h, 1% FBS-containing RPMI 1640 medium, read-out: dose required to induce 50% PC-3 cell death): 5 µM; IC50 (PC-3 cells; Homo sapiens, inducing apoptotic death in PC-3 cells / PC-3 cell viability, read-out: IC50 PC-3): 5 µM; Akt dephosphorylation (Western blot) (phospho-473Ser Akt): significant Akt dephosphorylation; IC50 (Akt): 5 µM; direct inhibitory effect on immunoprecipitated Akt activity (immunoprecipitated Akt): Neither compound 59 nor other the other compounds displayed a direct inhibitory effect"
"O/N=C/c1ccc(-n2nc(C(F)(F)F)cc2-c2ccc3c(ccc4ccccc43)c2)cc1 [Compound 65, 4-5[-(2-Phenanthrenyl)-3-(trifluoromethyl)-1H-pyraxol-1-yl]-benzaldehyde oxime]",–,–,IC50 (recombinant PDK-1): 25 µM
